In US20240166617A1, “PHOSPHOINOSITIDE 3 KINASE BETA INHIBITORS AND COMPOSITIONS AND METHODS THEREOF” (Geode Therapeutics Inc., priority 2021, published 2024):
Read-outs that look alike come from different tables or passages of the source.

System: phosphorylation of AKT in HCC70 cells
Assay: Cellular assay: phosphorylation of AKT in HCC70 cells (western blotting)
Format: cell-based
Details: Homo sapiens, HCC70, 1 h, HCC70 cells, compound 500 nM, 60 min, inhibition of Akt activity from band intensities
Procedure: Cellular activity of PI3Kβ inhibitors was determined by quantifying the phosphorylation of AKT in HCC70 cells. AKT phosphorylated at Ser473 and Thr308 were measured using western blotting and specific primary antibodies from Cell Signaling (CST), Danvers, MA. On day 1, HCC70 cells (ATCC #CRL-2315) were seeded into Falcon 12-well cell Culture Plate (Corning #353043) at 100,000 cells per well, in 1 ml complete culture medium (RPMI-1640, GIBCO #11875093) containing 10% heat inactivated FBS (GIBCO #10438026), 1% Pen-Strep (GIBCO #15140122) and incubated at 37° AC, 5% CO2 overnight. On day 2, compound (500 nM) or DMSO (0.1%, Sigma Aldrich #8418) was added and cells were further incubated for 60 min at 37° AC, 5% CO2 in a total volume of 1 ml fresh medium.
At the end of the cell treatment period, media were removed by aspiration and adherent cells were lysed in 100 uL RIPA buffer (Sigma Aldrich #R0278). Equal volume (15 uL) of proteins was resolved by SDS-PAGE and transferred to PVDF (Millipore #IPFL00010) membrane for immunoblot analysis. Primary antibodies to the following proteins were used for immunoblotting: phosphor-AKT (Ser473) (CST #4060), phosphor-AKT (Thr308) (CST #2965), total AKT (CST #9272). Secondary goat anti-rabbit IgG fluorophore conjugated antibody (Invitrogen #A21109) was used to visualize the indicated proteins on an Odyssey CLx imaging system (Li-Cor). Quantification of band intensities was performed using Odyssey 3.0 software. Inhibition of Akt activity was calculated by band intensities using the formula: […]
Index was evaluated by % of AI. Data represent Index+(20˜60%), ++(60%˜80%), +++(80%˜90%), and ++++>90%.

[1] = read-out: Index of AI (HCC70) p-AKT Thr 308
[2] = read-out: Index of AI (HCC70) p-AKT ser 473

SMILES | inhibition at 0.5 µM [1] [%] | inhibition at 0.5 µM [2] [%]
CC(Nc1cc(F)cc(F)c1)c1cc(NC2=NC(C)(C)CO2)cn2c(=O)cc(N3CCOCC3)nc12 (stereo not shown) [Compound 47, 9-(1-((3,5-difluorophenyl)amino)ethyl)-7-((4,4-dimethyl-4,5-dihydrooxazol-2-yl)amino)-2-morpholino-4H-pyrido[1,2-a]pyrimidin-4-one] | > 90 | > 90
Cc1cc(CN2CCc3c(F)cccc32)c2nc(N3CCOCC3)cc(=O)n2c1 [Compound 52, 9-[(4-fluoroindolin-1-yl)methyl]-7-methyl-2-morpholino-pyrido[1,2-a]pyrimidin-4-one] | 60 to 80 | 60 to 80
Cc1cc(CN2c3cccc(F)c3CC2C)c2nc(N3CCOCC3)cc(=O)n2c1 (stereo not shown) [Compound 53, 9-((4-fluoro-2-methylindolin-1-yl)methyl)-7-methyl-2-morpholino-4H-pyrido[1,2-a]pyrimidin-4-one] | 60 to 80 | 60 to 80
Cc1cc(CN2CCc3c(F)cc(F)cc32)c2nc(N3CCOCC3)cc(=O)n2c1 [Compound 54, 9-((4,6-difluoroindolin-1-yl)methyl)-7-methyl-2-morpholino-4H-pyrido[1,2-a]pyrimidin-4-one] | 20 to 60 | 20 to 60
Cc1cc(CN2c3cc(F)cc(F)c3CC2C)c2nc(N3CCOCC3)cc(=O)n2c1 (stereo not shown) [Compound 55, 9-((4,6-difluoro-2-methylindolin-1-yl)methyl)-7-methyl-2-morpholino-4H-pyrido[1,2-a]pyrimidin-4-one] | 20 to 60 | 20 to 60
Cc1cc(CN2CCc3cc(F)ccc32)c2nc(N3CCOCC3)cc(=O)n2c1 [Compound 56, 9-((5-fluoroindolin-1-yl)methyl)-7-methyl-2-morpholino-4H-pyrido[1,2-a]pyrimidin-4-one] | 60 to 80 | 60 to 80
Cc1cc(CN2c3ccccc3CC2C)c2nc(N3CCOCC3)cc(=O)n2c1 (stereo not shown) [Compound 57, 7-methyl-9-((2-methylindolin-1-yl)methyl)-2-morpholino-4H-pyrido[1,2-a]pyrimidin-4-one] | 60 to 80 | 60 to 80
CC(Nc1cc(F)cc(F)c1)c1cc(Cc2nnc[nH]2)cc2c(=O)cc(N3CCOCC3)oc12 (stereo not shown) [Compound 60, 6-((4H-1,2,4-triazol-3-yl)methyl)-8-(1-((3,5-difluorophenyl)amino)ethyl)-2-morpholino-4H-chromen-4-one] | 80 to 90 | 80 to 90
CC(Nc1cc(F)cc(F)c1)c1cc(-c2c[nH][nH]c2=O)cc2c(=O)cc(N3CCOCC3)oc12 (stereo not shown) [Compound 61, 4-(8-(1-((3,5-difluorophenyl)amino)ethyl)-2-morpholino-4-oxo-4H-chromen-6-yl)-1H-pyrazol-3(2H)-one] | 20 to 60 | 20 to 60
CN(C)C(=O)c1cc(CN2CCc3c(F)ccc(Cl)c32)c2oc(N3CCOCC3)cc(=O)c2c1 [Compound 62, 8-((7-chloro-4-fluoroindolin-1-yl)methyl)-N,N-dimethyl-2-morpholino-4-oxo-4H-chromene-6-carboxamide] | 80 to 90 | 80 to 90
CC1Cc2c(F)cc(F)cc2N1Cc1cc(C(=O)N(C)C)cc2c(=O)cc(N3CCOCC3)oc12 (stereo not shown) [Compound 63, 8-((4,6-difluoro-2-methylindolin-1-yl)methyl)-N,N-dimethyl-2-morpholino-4-oxo-4H-chromene-6-carboxamide] | > 90 | > 90
CN(C)C(=O)c1cc(CN2c3cc(F)cc(F)c3CC2(C)C)c2oc(N3CCOCC3)cc(=O)c2c1 [Compound 66, 8-((4,6-difluoro-2,2-dimethylindolin-1-yl)methyl)-N,N-dimethyl-2-morpholino-4-oxo-4H-chromene-6-carboxamide] | 80 to 90 | 80 to 90
CN(C)C(=O)c1cc(CN2CCc3ccccc32)c2oc(N3CCOCC3)cc(=O)c2c1 [Compound 67, 8-(indolin-1-ylmethyl)-N,N-dimethyl-2-morpholino-4-oxo-4H-chromene-6-carboxamide] | 60 to 80 | 60 to 80
CN(C)C(=O)c1cc(CN2CCc3c(F)cccc32)c2oc(N3CCOCC3)cc(=O)c2c1 [Compound 68, 8-((4-fluoroindolin-1-yl)methyl)-N,N-dimethyl-2-morpholino-4-oxo-4H-chromene-6-carboxamide] | > 90 | > 90
CN(C)C(=O)c1cc(CN2CCc3ccc(F)cc32)c2oc(N3CCOCC3)cc(=O)c2c1 [Compound 70, 8-((6-fluoroindolin-1-yl)methyl)-N,N-dimethyl-2-morpholino-4-oxo-4H-chromene-6-carboxamide] | 80 to 90 | 80 to 90
CN(C)C(=O)c1cc(CN2CCc3c(Cl)cccc32)c2oc(N3CCOCC3)cc(=O)c2c1 [Compound 71, 8-((4-chloroindolin-1-yl)methyl)-N,N-dimethyl-2-morpholino-4-oxo-4H-chromene-6-carboxamide] | > 90 | > 90
COc1cccc2c1N(Cc1cc(C(=O)N(C)C)cc3c(=O)cc(N4CCOCC4)oc13)CC2 [Compound 72, 8-((7-methoxyindolin-1-yl)methyl)-N,N-dimethyl-2-morpholino-4-oxo-4H-chromene-6-carboxamide] | 20 to 60 | 20 to 60
CCN(CC)C(=O)c1cc(CN2CCc3c(F)cc(F)cc32)c2oc(N3CCOCC3)cc(=O)c2c1 [Compound 78, 8-((4,6-difluoroindolin-1-yl)methyl)-N,N-diethyl-2-morpholino-4-oxo-4H-chromene-6-carboxamide] | 80 to 90 | 80 to 90
CCN(C)C(=O)c1cc(CN2CCc3c(F)cc(F)cc32)c2oc(N3CCOCC3)cc(=O)c2c1 [Compound 79, 8-((4,6-difluoroindolin-1-yl)methyl)-N-ethyl-N-methyl-2-morpholino-4-oxo-4H-chromene-6-carboxamide] | 80 to 90 | 80 to 90
CCNC(=O)c1cc(CN2CCc3c(F)cc(F)cc32)c2oc(N3CCOCC3)cc(=O)c2c1 [Compound 80, 8-((4,6-difluoroindolin-1-yl)methyl)-N-ethyl-2-morpholino-4-oxo-4H-chromene-6-carboxamide] | 60 to 80 | 60 to 80
CC(C)NC(=O)c1cc(CN2CCc3c(F)cc(F)cc32)c2oc(N3CCOCC3)cc(=O)c2c1 [Compound 81, 8-((4,6-difluoroindolin-1-yl)methyl)-N-isopropyl-2-morpholino-4-oxo-4H-chromene-6-carboxamide] | 60 to 80 | 60 to 80
CN1CCC(NC(=O)c2cc(CN3CCc4c(F)cc(F)cc43)c3oc(N4CCOCC4)cc(=O)c3c2)CC1 [Compound 82, 8-((4,6-difluoroindolin-1-yl)methyl)-N-(1-methylpiperidin-4-yl)-2-morpholino-4-oxo-4H-chromene-6-carboxamide] | 80 to 90 | 80 to 90
O=C(NC1CCOCC1)c1cc(CN2CCc3c(F)cc(F)cc32)c2oc(N3CCOCC3)cc(=O)c2c1 [Compound 83, 8-((4,6-difluoroindolin-1-yl)methyl)-2-morpholino-4-oxo-N-(tetrahydro-2H-pyran-4-yl)-4H-chromene-6-carboxamide] | 60 to 80 | 60 to 80
